Legend:
Assay type in all cases: cell-based, human
[1] = test system: A549 cells; test: A549 target cells incubated with inhibitors alone (RT-CES control); details: A549 target cells without NK-92
From the text: Inhibition of NK-mediated cytolysis of target cells by agents which block the signaling pathways leading to cytotoxicity. The interaction of NK receptors at the cell membrane by target cells leads to the activation of signal transduction machinery which results in cytolysis of target cells (Vivier et al., 2004). One of the key signaling cascades which regulate the fusion of perforin and granzyme containing secretory granules at the NK/target cell synaptic junction is the phosphatidyl-inositol-3-kinase (PI3K), Rac and mitogen activated protein kinase 1 (Erk) pathway (Djeu et al., 2002; Vivier et al., 2004). In order to determine the specificity of the signaling pathways in regulating NK-mediated cytotoxicity, we therefore sought to utilize specific inhibitors of the PI3K and Erk pathways. NK-92 cells were incubated with both the PI3K inhibitor Wortmannin and the Erk pathway inhibitor PD98059 or DMSO as a control and then added to A549 target cells. […] We calculated percent inhibition of cytolysis for both inhibitors at different time points after NK addition. […] In summary, the experiments shown here clearly establish that the RT-CES system can be used to monitor NK-mediated cytotoxic activity against a variety of different cell lines.

[2] = test system: NK-92-mediated cytolysis of A549 cells; test: Inhibition of NK-92-mediated cytolysis by signaling pathway inhibitors (RT-CES); details: NK-92 pre-incubated with inhibitor, E/T 16:1
Description: Cytolytic analysis. Target cells were seeded into the wells of either 16-well or 96-well E-plate in 100 μL of media. Cell growth was dynamically monitored using the RT-CES system for a period of 24-34 hours, depending on the experiment until they reached log growth phase and formed a monolayer. Effector cells at different concentrations were then directly added into individual wells containing the target cells. For background control, effector cells were added to a well without target cells. After addition of the effector cells, the E-plate was returned to the e-plate station and the measurements were automatically collected by the analyzer every 15 minutes for up to 20 hours.
Data analysis. The integrated software is able to display entire history of the experiment from seeding the cells to termination of cytolysis. […] The cell index here is determined by calculating, for each measurement frequency f, the relative-change (Relative change (f)=(Rcell (f)−Rbackground(f))/Rbackground(f)) in resistance (a component of impedance) of a well when target cells are present in the well (Rcell (f)) with respect to background resistance (Rbackground) of the well when no cell is present and only cell culture medium is in the well, and then finding the maximum relative-change in resistance for all frequencies measured (Cell Index=max {Relative change (f)} for all measurement frequencies). […]

[3] = test system: H460 cells; test: Time-dependent cell index of drug-treated cells (cell-substrate impedance)
Description: The device was positioned on a device station that was located in an incubator maintaining conditions of 37° C. and 5% CO2. The cells were cultured and treated at their exponential growth phase with different concentrations of paclitaxel. The dynamic response of the cells to different doses of paclitaxel was monitored by monitoring cell-substrate impedance in real time every 15 minutes for 50 hours after treatment using a cell-substrate impedance monitoring system. The cell-substrate impedance monitoring system calculated the cell index at each time point monitored and plotted the cell index as a function of time.
The device was positioned on a device station that was located in an incubator maintaining conditions of 37 degrees C. and 5% CO2.

[4] = test system: A549 cells; test: RT-CES dynamic monitoring of drug interaction with target cells; details: A549, highest concentration; cells later recover and re-proliferate
Description: Drug Treatment and Cytotoxicity Assessment.
In order to observe the kinetics of drug interaction with target cells, A549 non-small lung cancer cells were seeded in ACEA 96× E-plate™ and continuously monitored until the cells reached the log growth phase at which point different concentrations of paclitaxel were added to the cells at the indicated final concentration. […] While it remains to be determined if this phenomenon is due to metabolism and inactivation of paclitaxel or due to the emergence of paclitaxel-resistant subpopulation, this experiment clearly exemplifies the tremendous advantage of real-time measurement which is offered by the RT-CES system and allows the user to the opportunity to observe and assess the entire history of drug interaction with the target cells which provides further information in addition to cell viability or cytotoxicity. The phenomenon observed in FIG. 20A would've been easily missed by traditional single-point assays such as MTT.
Yet another major advantage of using the RT-CES system to continually monitor the interaction of drugs with target cells is that the user can obtain insight into the mechanism of action of the drug of interest. […]

SMILES	effect of inhibitor alone on A549 baseline [1]	effect on NK-92-mediated cytolysis of A549 cells [2]	time over which cell index exhibited a near-constant value ([3]; H460, 33 nanomolar)	cell index response after compound addition ([3]; H460, concentrations between 67 nanomolar and 500 nanomolar)	effect on A549 cells (Cell Index trace) [4]
COc1cccc(-c2cc(=O)c3ccccc3o2)c1N [PD98059]	minimal effect on the baseline	dose-dependently inhibited	–	–	–
CC(=O)O[C@H]1C(=O)[C@@]2(C)[C@H]([C@H](OC(=O)c3ccccc3)[C@]3(O)C[C@H](OC(=O)[C@H](O)[C@@H](NC(=O)c4ccccc4)c4ccccc4)C(C)=C1C3(C)C)[C@]1(OC(C)=O)CO[C@@H]1C[C@@H]2O [paclitaxel]	–	–	about 15 hours	gradual decrease in cell index after compound addition	initially induces a cytotoxic effect

From US12066428B2, “Cell-substrate impedance monitoring of cancer cells” (Agilent Technologies, Inc., priority 2016, dated 2024)
